Assay results from PMC9554301, “Rapid modeling of experimental molecular kinetics with simple electronic circuits instead of with complex differential equations” (Frontiers in Bioengineering and Biotechnology, 2022).

Columns and labels:
beta-galactosidase [1] = biological target: T1, beta-galactosidase (Escherichia coli, UniProt P00722); test: ONPG hydrolysis absorbance assay at […] nm, Lineweaver-Burk; type: biochemical
T1 construct: gene lacZ

beta-galactosidase [2] = biological target: T1, beta-galactosidase; test: product-feedback inhibition of ONPG hydrolysis, absorbance at […] nm; type: biochemical
beta-galactosidase [3] = biological target: T1, beta-galactosidase; test: hydrolysis kinetics (Km), absorbance of 2-nitrophenol at […] nm; type: biochemical
[4] = substrate: CCO; test: ethanol oxidation kinetics (Km), NADH absorbance, Lineweaver-Burk; type: biochemical, Saccharomyces cerevisiae; conditions: NAD+ binds the E-NAD complex (ordered Bi-Bi)

T1 sequence (P00722 2-1024): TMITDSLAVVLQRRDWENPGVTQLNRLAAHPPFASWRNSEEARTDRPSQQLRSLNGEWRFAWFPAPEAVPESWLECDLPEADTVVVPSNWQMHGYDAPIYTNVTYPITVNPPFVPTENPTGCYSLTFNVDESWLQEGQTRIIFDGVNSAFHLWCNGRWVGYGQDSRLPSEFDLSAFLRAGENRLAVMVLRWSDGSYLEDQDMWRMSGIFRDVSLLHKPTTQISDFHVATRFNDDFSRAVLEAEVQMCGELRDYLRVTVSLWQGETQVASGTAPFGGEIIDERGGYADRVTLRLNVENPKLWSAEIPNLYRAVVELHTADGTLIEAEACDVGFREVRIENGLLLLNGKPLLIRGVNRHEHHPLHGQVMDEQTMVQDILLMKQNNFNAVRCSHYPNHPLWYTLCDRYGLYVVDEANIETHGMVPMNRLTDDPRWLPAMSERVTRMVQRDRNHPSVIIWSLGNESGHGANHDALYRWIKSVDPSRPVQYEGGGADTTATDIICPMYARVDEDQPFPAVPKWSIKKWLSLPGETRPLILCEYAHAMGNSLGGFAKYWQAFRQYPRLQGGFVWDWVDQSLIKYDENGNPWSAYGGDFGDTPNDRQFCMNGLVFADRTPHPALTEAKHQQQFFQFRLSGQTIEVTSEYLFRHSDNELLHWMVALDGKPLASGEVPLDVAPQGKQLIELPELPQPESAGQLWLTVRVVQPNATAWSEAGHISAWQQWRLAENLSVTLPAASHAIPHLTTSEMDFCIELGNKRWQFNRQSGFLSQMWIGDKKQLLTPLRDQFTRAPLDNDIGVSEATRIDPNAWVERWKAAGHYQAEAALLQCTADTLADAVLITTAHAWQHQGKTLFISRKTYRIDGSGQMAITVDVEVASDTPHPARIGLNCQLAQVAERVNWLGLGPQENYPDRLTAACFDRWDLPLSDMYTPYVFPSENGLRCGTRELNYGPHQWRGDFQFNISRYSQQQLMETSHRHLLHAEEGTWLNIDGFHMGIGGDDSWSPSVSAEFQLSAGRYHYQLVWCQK

OC[C@H]1O[C@@H](SCCc2ccccc2)[C@H](O)[C@@H](O)[C@H]1O [PETG, phenylethyl beta-D-thiogalactopyranoside]
Ki (beta-galactosidase [1]): 0.00233 mM

OC[C@H]1OC(O)[C@H](O)[C@@H](O)[C@H]1O (stereo partly shown) [Gal, galactose]
Ki (beta-galactosidase [2]): 13.7 mM

O=[N+]([O-])c1ccccc1O[C@@H]1O[C@H](CO)[C@H](O)[C@H](O)[C@H]1O [ONPG, o-nitrophenyl-β-D-galactopyranoside]
Km (beta-galactosidase [3]): 167 µM

B1: alcohol dehydrogenase (Saccharomyces cerevisiae S288C) (protein)
chain: SIPETQKGVIFYESHGKLEYKDIPVPKPKANELLINVKYSGVCHTDLHAWHGDWPLPVKLPLVGGHEGAGVVVGMGENVKGWKIGDYAGIKWLNGSCMACEYCELGNESNCPHADLSGYTHDGSFQQYATADAVQAAHIPQGTDLAQVAPILCAGITVYKALKSANLMAGHWVAISGAAGGLGSLAVQYAKAMGYRVLGIDGGEGKEELFRSIGGEVFIDFTKEKDIVGAVLKATDGGAHGVINVSVSEAAIEASTRYVRANGTTVLVGMPAGAKCCSDVFNQVVKSISIVGSYVGNRADTREALDFFARGLVKSPIKVVGLSTLPEIYEKMEKGQIVGRYVVDTSK
notes: yeast alcohol dehydrogenase (cat# A7011)
Km [4]: 14300 µM
